Target: T1, human CGT (Homo sapiens, UniProt Q16880)
T1 sequence (Q16880 21-541): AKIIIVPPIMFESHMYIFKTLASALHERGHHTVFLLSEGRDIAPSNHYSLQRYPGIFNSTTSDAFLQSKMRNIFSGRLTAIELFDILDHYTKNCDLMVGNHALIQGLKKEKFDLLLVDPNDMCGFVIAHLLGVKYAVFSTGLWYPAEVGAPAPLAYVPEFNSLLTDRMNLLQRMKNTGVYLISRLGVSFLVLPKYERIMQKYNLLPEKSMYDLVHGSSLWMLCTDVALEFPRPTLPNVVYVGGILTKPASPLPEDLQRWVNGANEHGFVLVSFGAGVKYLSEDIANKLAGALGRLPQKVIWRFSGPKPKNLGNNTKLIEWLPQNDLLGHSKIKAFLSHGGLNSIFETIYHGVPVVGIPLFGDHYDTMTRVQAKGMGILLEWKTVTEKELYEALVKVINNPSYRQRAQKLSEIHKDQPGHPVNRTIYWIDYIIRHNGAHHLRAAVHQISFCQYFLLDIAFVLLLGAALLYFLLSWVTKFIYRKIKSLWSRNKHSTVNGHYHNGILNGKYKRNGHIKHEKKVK
Assay: Assay 1: CGT Enzymatic Assay (RapidFire/MS/MS, 0.01% Tween 80)
Format: biochemical
Conditions: Table 1, Compounds of Formula (I) and Formula (II); CGT enzymatic assay, C6-NBD-dihydro-galactosylceramide readout; read-out: IC50

| IC50 [µM] | Compound |
| --- | --- |
| < 1 | CC(C)c1c(-c2ccccc2)n(-c2ccc(Br)cc2)c(=O)n1-c1ccc(Br)cc1 [Compound 267, 1,3-bis(4-bromophenyl)-4-isopropyl-5-phenyl-1,3-dihydro-2H-imidazol-2-one] |
| < 1 | N#Cc1ccc(N2C(=O)N(c3ccc(Cl)cc3)C(O)(c3cccc(OC(F)(F)F)c3)C23CCC3)cc1 (stereo not shown) [Compound 269, 4-(7-(4-chlorophenyl)-8-hydroxy-6-oxo-8-(3-(trifluoromethoxy)phenyl)-5,7-diazaspiro[3.4]octan-5-yl)benzonitrile] |

| Compound | IC50 [µM] |
| --- | --- |
| N#Cc1ccc(N2C(=O)N(c3ccc(Cl)cc3)C(O)(c3cccc(C#N)c3)C23CCC3)cc1 (stereo not shown) [Compound 268, 3-(7-(4-chlorophenyl)-5-(4-cyanophenyl)-8-hydroxy-6-oxo-5,7-diazaspiro[3.4]octan-8-yl)benzonitrile] | < 1 |

Same assay, conditions: Table 1, Compounds of Formula (I) and Formula (II); CGT enzymatic assay; read-out: IC50

| IC50 [µM] | Compound |
| --- | --- |
| < 1 | Cc1c(-c2ccccc2)n(-c2ccc(Br)cc2)c(=O)n1-c1ccc(Br)cc1 [Compound 257, 1,3-bis(4-bromophenyl)-4-methyl-5-phenyl-1,3-dihydro-2H-imidazol-2-one] |
| < 1 | CCc1c(-c2cccc(C#N)c2)n(-c2ccc(Cl)cc2)c(=O)n1-c1ccc(Cl)cc1 [Compound 258, 3-(1,3-bis(4-chlorophenyl)-5-ethyl-2-oxo-2,3-dihydro-1H-imidazol-4-yl)benzonitrile] |
| > 50 | Cc1cccc(-c2cn(-c3ccc(Cl)cc3)c(=O)n2-c2ccc(Cl)cc2)c1 [Compound 259, 1,3-bis(4-chlorophenyl)-4-(m-tolyl)-1,3-dihydro-2H-imidazol-2-one] |
| 1 to 10 | Cc1cccc(-c2c(C)n(-c3ccc(Cl)cc3)c(=O)n2-c2ccc(Cl)cc2)c1 [Compound 260, 1,3-bis(4-chlorophenyl)-4-methyl-5-(m-tolyl)-1,3-dihydro-2H-imidazol-2-one] |
| 1 to 10 | CCCc1c(-c2ccccc2)n(-c2ccc(Br)cc2)c(=O)n1-c1ccc(Br)cc1 [Compound 261, 1,3-bis(4-bromophenyl)-4-phenyl-5-propyl-1,3-dihydro-2H-imidazol-2-one] |
| 1 to 10 | Cc1c(-c2cccc(OC(F)(F)F)c2)n(-c2ccc(Br)cc2)c(=O)n1-c1ccc(Br)cc1 [Compound 262, 1,3-bis(4-bromophenyl)-4-methyl-5-(3-(trifluoromethoxy)phenyl)-1,3-dihydro-2H-imidazol-2-one] |
| 1 to 10 | Cc1cccc(-c2c(C)n(-c3ccc(Br)cc3)c(=O)n2-c2ccc(Br)cc2)c1 [Compound 263, 1,3-bis(4-bromophenyl)-4-methyl-5-(m-tolyl)-1,3-dihydro-2H-imidazol-2-one] |
| < 1 | CCc1c(-c2ccccc2)n(-c2ccc(Br)cc2)c(=O)n1-c1ccc(Br)cc1 [Compound 264, 1,3-bis(4-bromophenyl)-4-ethyl-5-phenyl-1,3-dihydro-2H-imidazol-2-one] |
| > 50 | N#Cc1cc(Cl)cc(-c2cn(-c3ccc(Cl)cc3)c(=O)n2-c2ccc(Cl)cc2)c1 [Compound 265, 3-(1,3-bis(4-chlorophenyl)-2-oxo-2,3-dihydro-1H-imidazol-4-yl)-5-chlorobenzonitrile] |
| 1 to 10 | Cc1csc(-c2c(C)n(-c3ccc(Br)cc3)c(=O)n2-c2ccc(Br)cc2)c1 [Compound 266, 1,3-bis(4-bromophenyl)-4-methyl-5-(4-methylthiophen-2-yl)-1,3-dihydro-2H-imidazol-2-one] |

The next lines start with the compound.

| Compound | IC50 [µM] |
| --- | --- |
| Cc1ccc(N2C(=O)N(c3ccc(C)cc3)C(O)(c3cccc(OC(F)(F)F)c3)C2C(C)C)cc1 (stereo not shown) [Compound 235, 4-hydroxy-5-isopropyl-1,3-di-p-tolyl-4-(3-(trifluoromethoxy)phenyl)imidazolidin-2-one] | < 1 |
| O=C1N(c2ccc(Cl)cc2)C2(CC2)C(O)(c2cccc(OC(F)F)c2)N1c1ccc(Cl)cc1 (stereo not shown) [Compound 236, 4,6-bis(4-chlorophenyl)-7-(3-(difluoromethoxy)phenyl)-7-hydroxy-4,6-diazaspiro[2.4]heptan-5-one] | < 1 |
| O=C1N(c2ccc(Cl)cc2)C(C2COC2)C(O)(c2cccc(OC(F)(F)F)c2)N1c1ccc(Cl)cc1 (stereo not shown) [Compound 237, 1,3-bis(4-chlorophenyl)-4-hydroxy-5-(oxetan-3-yl)-4-(3-(trifluoromethoxy)phenyl)imidazolidin-2-one] | < 1 |
| COC[C@@H]1N(c2ccc(Cl)cc2)C(=O)N(c2ccc(Cl)cc2)C1(O)c1cccc(OC(F)F)c1 (stereo partly drawn) [Compound 238-1, (5S)-1,3-bis(4-chlorophenyl)-4-(3-(difluoromethoxy)phenyl)-4-hydroxy-5-(methoxymethyl)imidazolidin-2-one] | < 1 |
| COC[C@H]1N(c2ccc(Cl)cc2)C(=O)N(c2ccc(Cl)cc2)C1(O)c1cccc(OC(F)F)c1 (stereo partly drawn) [Compound 238-2, (5R)-1,3-bis(4-chlorophenyl)-4-(3-(difluoromethoxy)phenyl)-4-hydroxy-5-(methoxymethyl)imidazolidin-2-one] | < 1 |
| Cc1ccc(N2C(=O)N(c3ccc(C)cc3)C(O)(c3cccc(OC(F)(F)F)c3)C23CCC3)cc1 (stereo not shown) [Compound 239, 8-hydroxy-5,7-di-p-tolyl-8-(3-(trifluoromethoxy)phenyl)-5,7-diazaspiro[3.4]octan-6-one] | < 1 |
| O=C1N(c2ccc(Cl)cc2)C2(CC(F)C2)C(O)(c2cccc(OC(F)(F)F)c2)N1c1ccc(Cl)cc1 (stereo not shown) [Compound 240, 5,7-bis(4-chlorophenyl)-2-fluoro-8-hydroxy-8-(3-(trifluoromethoxy)phenyl)-5,7-diazaspiro[3.4]octan-6-one] | < 1 |
| COc1ccc(N2C(=O)N(c3ccc(OC)cc3)C(O)(c3cccc(OC(F)(F)F)c3)C2(C)C)cc1 (stereo not shown) [Compound 241, 4-hydroxy-1,3-bis(4-methoxyphenyl)-5,5-dimethyl-4-(3-(trifluoromethoxy)phenyl)imidazolidin-2-one] | < 1 |
| O=C1N(c2ccc(Cl)cc2)C2(CCC2)C(O)(c2cccc(OC(F)(F)F)c2)N1c1ccc(Cl)cc1 (stereo not shown) [Compound 242, 5,7-bis(4-chlorophenyl)-8-hydroxy-8-(3-(trifluoromethoxy)phenyl)-5,7-diazaspiro[3.4]octan-6-one] | < 1 |
| CCCc1c(-c2cccc(C(F)(F)F)c2)n(-c2ccc(Cl)cc2)c(=O)n1-c1ccc(Cl)cc1 [Compound 243, 1,3-bis(4-chlorophenyl)-4-propyl-5-(3-(trifluoromethyl)phenyl)-1,3-dihydro-2H-imidazol-2-one] | 1 to 10 |
| CCCc1c(-c2cccc(CC)c2)n(-c2ccc(Cl)cc2)c(=O)n1-c1ccc(Cl)cc1 [Compound 244, 1,3-bis(4-chlorophenyl)-4-(3-ethylphenyl)-5-propyl-1,3-dihydro-2H-imidazol-2-one] | 1 to 10 |
| CCCc1c(-c2cccc(OC(F)(F)F)c2)n(-c2ccc(Cl)cc2)c(=O)n1-c1ccc(Cl)cc1 [Compound 245, 1,3-bis(4-chlorophenyl)-4-propyl-5-(3-(trifluoromethoxy)phenyl)-1,3-dihydro-2H-imidazol-2-one] | < 1 |
| Cc1c(-c2cccc(Br)c2)n(-c2ccc(Cl)cc2)c(=O)n1-c1ccc(Cl)cc1 [Compound 246, 4-(3-bromophenyl)-1,3-bis(4-chlorophenyl)-5-methyl-1,3-dihydro-2H-imidazol-2-one] | < 1 |
| CCc1c(-c2cccc(OC(F)(F)F)c2)n(-c2ccc(Cl)cc2)c(=O)n1-c1ccc(Cl)cc1 [Compound 247, 1,3-bis(4-chlorophenyl)-4-ethyl-5-(3-(trifluoromethoxy)phenyl)-1,3-dihydro-2H-imidazol-2-one] | < 1 |
| CCCc1c(-c2cccc(OC(F)(F)F)c2)n(-c2ccc(Br)cc2)c(=O)n1-c1ccc(Br)cc1 [Compound 248, 1,3-bis(4-bromophenyl)-4-propyl-5-(3-(trifluoromethoxy)phenyl)-1,3-dihydro-2H-imidazol-2-one] | < 1 |
| O=c1n(-c2ccc(Br)cc2)c(-c2ccccc2)c(C2CC2)n1-c1ccc(Br)cc1 [Compound 249, 1,3-bis(4-bromophenyl)-4-cyclopropyl-5-phenyl-1,3-dihydro-2H-imidazol-2-one] | < 1 |
| CCCc1c(-c2cccc(Cl)c2)n(-c2ccc(Br)cc2)c(=O)n1-c1ccc(Br)cc1 [Compound 250, 1,3-bis(4-bromophenyl)-4-(3-chlorophenyl)-5-propyl-1,3-dihydro-2H-imidazol-2-one] | < 1 |
| CCc1c(-c2cccc(C#N)c2)n(-c2ccc(F)cc2)c(=O)n1-c1ccc(F)cc1 [Compound 252, 3-(5-ethyl-1,3-bis(4-fluorophenyl)-2-oxo-2,3-dihydro-1H-imidazol-4-yl)benzonitrile] | 1 to 10 |
| CC(=O)c1cccc(-c2c(C)n(-c3ccc(Cl)cc3)c(=O)n2-c2ccc(Cl)cc2)c1 [Compound 253, 4-(3-acetylphenyl)-1,3-bis(4-chlorophenyl)-5-methyl-1,3-dihydro-2H-imidazol-2-one] | 1 to 10 |
| O=c1n(-c2ccc(Cl)cc2)c(-c2cccc(Cl)c2)c(C2CCCO2)n1-c1ccc(Cl)cc1 (stereo not shown) [Compound 254, 4-(3-chlorophenyl)-1,3-bis(4-chlorophenyl)-5-(tetrahydrofuran-2-yl)-1,3-dihydro-2H-imidazol-2-one] | 1 to 10 |
| O=c1n(-c2ccc(Br)cc2)cc(-c2ccc[nH]2)n1-c1ccc(Br)cc1 [Compound 256, 1,3-bis(4-bromophenyl)-4-(1H-pyrrol-2-yl)-1,3-dihydro-2H-imidazol-2-one] | > 50 |

From US20190134005A1 (BioMarin Pharmaceutical Inc., priority 2016, published 2019)
